Data from ChEMBL document CHEMBL3045921, “Synthesis and Acaricidal Activity of Pyrazole-5-carboxamide Derivatives” (1991).

Legend:
Assay type in all cases: functional
Conditions in all cases: 120 h
Tetranychus urticae [1] = assay: Acaricidal activity against Tetranychus urticae (two-spotted spider mite) in kidney bean leaf assessed as mortality at 500 ppm at 25 degC measured after 5 days
Tetranychus urticae [2] = assay: Acaricidal activity against Tetranychus urticae (two-spotted spider mite) in kidney bean leaf assessed as mortality at 200 ppm at 25 degC measured after 5 days
Tetranychus urticae [3] = assay: Acaricidal activity against Tetranychus urticae (two-spotted spider mite) in kidney bean leaf assessed as mortality at 12.5 ppm at 25 degC measured after 5 days
Tetranychus urticae [4] = assay: Acaricidal activity against Tetranychus urticae (two-spotted spider mite) in kidney bean leaf assessed as mortality at 50 ppm at 25 degC measured after 5 days
Tetranychus urticae [5] = assay: Acaricidal activity against Tetranychus urticae (two-spotted spider mite) in kidney bean leaf assessed as mortality at 3.1 ppm at 25 degC measured after 5 days

| Structure (SMILES) | mortality at 500 ppm (Tetranychus urticae [1]) | mortality at 200 ppm (Tetranychus urticae [2]) | mortality at 12.5 ppm (Tetranychus urticae [3]) | mortality at 50 ppm (Tetranychus urticae [4]) | mortality at 3.1 ppm (Tetranychus urticae [5]) |
| --- | --- | --- | --- | --- | --- |
| CCc1nn(C)c(C(=O)NCc2ccc(C(C)C)cc2)c1Cl | 100% | 100% | 30% | 100% | 0% |
| CCCCCCCCc1ccc(CNC(=O)c2c(Cl)c(CC)nn2C)cc1 | 100% | 80% | 0% | 30% | 0% |
| CCc1nn(C)c(C(=O)NCc2ccc(C3CC3)cc2)c1Cl | 30% | 0% | 0% | 0% | 0% |
| CCCCc1ccc(CNC(=O)c2c(Cl)c(CC)nn2C)cc1 | 100% | 100% | 80% | 100% | 0% |
| CCc1nn(C)c(C(=O)NCc2ccc(CC(C)C)cc2)c1Cl | 100% | 100% | 30% | 80% | 0% |
| CCc1nn(C)c(C(=O)NCc2ccc(C(C)CC)cc2)c1Cl (configuration not stated) | 100% | 100% | 0% | 100% | 0% |
| CCCCCc1ccc(CNC(=O)c2c(Cl)c(CC)nn2C)cc1 | 100% | 100% | 80% | 100% | 30% |
| CCc1nn(C)c(C(=O)NCc2ccc(CC(C)(C)C)cc2)c1Cl | 100% | 100% | 80% | 100% | 0% |
| CCCCCCc1ccc(CNC(=O)c2c(Cl)c(CC)nn2C)cc1 | 100% | 80% | 0% | 30% | 0% |
| CCc1nn(C)c(C(=O)NCc2ccc([Si](C)(C)C)cc2)c1Cl | 100% | 100% | 80% | 100% | 0% |
| CCc1nn(C)c(C(=O)NCc2ccc(OC)cc2)c1Cl | 0% | 0% | – | 0% | – |
| Cc1n[nH]c(C(=O)NCc2ccc(C(C)(C)C)cc2)c1Cl | 0% | 0% | – | 0% | – |
| CCn1nc(C)c(Cl)c1C(=O)NCc1ccc(C(C)(C)C)cc1 | 0% | 0% | – | 0% | – |
| Cc1nn(C(C)C)c(C(=O)NCc2ccc(C(C)(C)C)cc2)c1Cl | 0% | 0% | – | 0% | – |
| CCCCn1nc(C)c(Cl)c1C(=O)NCc1ccc(C(C)(C)C)cc1 | 0% | 0% | – | 0% | – |
| Cc1nn(-c2ccccc2)c(C(=O)NCc2ccc(C(C)(C)C)cc2)c1Cl | 0% | 0% | – | 0% | – |
| Cc1nn(Cc2ccccc2)c(C(=O)NCc2ccc(C(C)(C)C)cc2)c1Cl | 0% | 0% | – | 0% | – |
| Cc1nn(C(F)F)c(C(=O)NCc2ccc(C(C)(C)C)cc2)c1Cl | 0% | 0% | – | 0% | – |
| Cc1cc(C(=O)NCc2ccc(C(C)(C)C)cc2)n(C)n1 | 100% | 100% | 30% | 100% | 0% |
| COc1c(C)nn(C)c1C(=O)NCc1ccc(C(C)(C)C)cc1 | 100% | 100% | 100% | 100% | 0% |
| CCOc1c(C)nn(C)c1C(=O)NCc1ccc(C(C)(C)C)cc1 | 100% | 100% | 0% | 0% | 0% |

| Structure (SMILES) | mortality at 500 ppm (Tetranychus urticae [1]) | mortality at 200 ppm (Tetranychus urticae [2]) | mortality at 12.5 ppm (Tetranychus urticae [3]) | mortality at 50 ppm (Tetranychus urticae [4]) | mortality at 3.1 ppm (Tetranychus urticae [5]) |
| --- | --- | --- | --- | --- | --- |
| Cc1nn(C)c(C(=O)NCc2ccc(C(C)(C)C)cc2)c1OC(F)F | 100% | 0% | 0% | 0% | 0% |
| Cn1ncc(Cl)c1C(=O)NCc1ccc(C(C)(C)C)cc1 | 100% | 100% | 0% | 30% | 0% |
| CC(C)c1nn(C)c(C(=O)NCc2ccc(C(C)(C)C)cc2)c1Cl | 100% | 100% | 30% | 100% | 0% |
| Cn1nc(C2CC2)c(Cl)c1C(=O)NCc1ccc(C(C)(C)C)cc1 | 30% | 0% | 0% | 0% | 0% |
| CCCc1nn(C)c(C(=O)NCc2ccc(C(C)(C)C)cc2)c1Cl | 100% | 80% | 0% | 30% | 0% |
| CCc1nn(C)c(C(=O)NCc2ccccc2)c1Cl | 0% | 0% | 0% | 0% | 0% |
| CCc1nn(C)c(C(=O)NCc2ccc(C)cc2)c1Cl | 0% | 0% | 0% | 0% | 0% |
| CCc1ccc(CNC(=O)c2c(Cl)c(CC)nn2C)cc1 | 30% | 0% | 0% | 0% | 0% |
| CCCc1ccc(CNC(=O)c2c(Cl)c(CC)nn2C)cc1 | 100% | 30% | 0% | 0% | 0% |
| Cc1nn(C)c(C(=O)NC(C)(C)C)c1Br | 0% | 0% | – | 0% | – |
| Cc1nn(C)c(C(=O)Nc2ccc(C(C)(C)C)cc2)c1Br | 0% | 0% | – | 0% | – |
| Cc1nn(C)c(C(=O)NCc2ccccc2)c1Br | 0% | 0% | – | 0% | – |
| Cc1nn(C)c(C(=O)NC(C)c2ccccc2)c1Br (configuration not stated) | 0% | 0% | – | 0% | – |
| Cc1nn(C)c(C(=O)NC(C)(C)c2ccccc2)c1Br | 0% | 0% | – | 0% | – |
| Cc1nn(C)c(C(=O)NC(c2ccccc2)C(C)C)c1Cl (configuration not stated) | 0% | 0% | – | 0% | – |
| Cc1nn(C)c(C(=O)NC(c2ccccc2)c2ccccc2)c1Br | 0% | 0% | – | 0% | – |
| Cc1nn(C)c(C(=O)NCc2ccccc2C(F)(F)F)c1Cl | 0% | 0% | – | 0% | – |
| Cc1nn(C)c(C(=O)NCc2cccc(C(F)(F)F)c2)c1Cl | 0% | 0% | – | 0% | – |
| Cc1nn(C)c(C(=O)N(C)Cc2ccc(C(C)(C)C)cc2)c1Cl | 0% | 0% | – | 0% | – |
| Cc1nn(C)c(C(=O)OCc2ccc(C(C)(C)C)cc2)c1Br | 0% | 0% | – | 0% | – |
